# According to US9273341B2, “Methods for treatment of bacterial infections” (THE JOHNS HOPKINS UNVIERSITY, priority 2010, dated 2016):
# “Also recorded” adds a separate entry of the source.
# Legend:
# [1] = tested on: M. tuberculosis mutant strain lacking LdtMt2 (ldtMt2::Tn); format: cell-based
# LdtMt2 [2] = target: T1, LdtMt2 (Mycobacterium tuberculosis, UniProt O53223); format: biochemical, M. tuberculosis
# T1 construct: initiator methionine from the pET2818 ATG codon (N); made in house; host or cells: E. coli BL21(DE3) harboring pREP4GroESL and pET2818 with the ldtMt2 fragment
# T1 sequence (O53223 55-408): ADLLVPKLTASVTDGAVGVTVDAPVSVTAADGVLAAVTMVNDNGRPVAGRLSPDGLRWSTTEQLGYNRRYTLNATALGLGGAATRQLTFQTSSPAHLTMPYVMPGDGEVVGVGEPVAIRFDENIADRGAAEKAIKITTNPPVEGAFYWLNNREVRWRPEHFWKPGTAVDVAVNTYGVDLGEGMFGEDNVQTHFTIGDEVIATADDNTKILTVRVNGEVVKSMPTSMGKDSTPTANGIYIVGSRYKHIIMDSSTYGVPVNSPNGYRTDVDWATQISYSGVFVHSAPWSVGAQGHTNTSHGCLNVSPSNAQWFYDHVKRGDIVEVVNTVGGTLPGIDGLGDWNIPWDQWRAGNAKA
# LdtMt2 [3] = target: T1, LdtMt2; format: binding, M. tuberculosis
# [4] = tested on: M. tuberculosis lacking LdtMt2 (ldtMt2::Tn); parameters: species or system Balb/C mice; details: mouse, in vivo
SMILES,concentration up to which LdtMt2 was not inhibited (LdtMt2 [2]),formation of covalent adducts with LdtMt2 (LdtMt2 [3]),other results
N[C@@H]1CON=C1O [D-cycloserine],,,MIC [1]: 5 µg/mL
CC1(C)S[C@@H]2[C@H](NC(=O)[C@H](N)c3ccccc3)C(=O)N2[C@H]1C(=O)O [ampicillin],"> 5,700 μM",Adducts were not detected; also recorded: No adduct was detected,
CO/N=C(\C(=O)N[C@@H]1C(=O)N2C(C(=O)O)=C(CSc3nc(=O)c(=O)[nH]n3C)CS[C@H]12)c1csc(N)n1 [ceftriaxone],> 360 µM,Adducts were not detected; also recorded: No adduct was detected,
C[C@@H](O)[C@H]1C(=O)N2C(C(=O)O)=C(S[C@@H]3CN[C@H](C(=O)Nc4cccc(C(=O)O)c4)C3)[C@H](C)[C@H]12 [ertapenem],,formation of covalent adducts,
NNC(=O)c1ccncc1 [isoniazid],,,bacterial burden (lung CFU) under treatment [4]: similarly effective
C[C@@H](O)[C@H]1C(=O)N2C(C(=O)O)=C(S[C@@H]3CN[C@H](C(=O)N(C)C)C3)[C@H](C)[C@H]12 [meropenem],,formation of covalent adducts,
